Measured values published in the supplement of paper PMC10307832.

Legend:
Assay in all cases: relative viability (nuclei count vs DMSO), 5 days (fraction); higher = more cells survive
NCI-H460 = tested on: NCI-H460
Method in brief: (§1)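 Relative viability divides the nuclei count in treated wells by that in vehicle wells. Lung cancer cell lines were seeded in 1536-well plates, dosed by pin tool the next day, and fixed and stained after 5 days in one step with final 0.05% Triton X-100, 1% formaldehyde and 1 ug/ml Hoechst. Dosing was a single drug or a fixed anchor-drug dose plus five library-drug doses (not always all listed) in √10 steps, and values are medians of duplicate plates imaged at 4×.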

LK-2 = tested on: LK-2
Method in brief: as §1

LU99A = tested on: LU99A
Method in brief: as §1

NCI-H1793 = tested on: NCI-H1793
Method in brief: as §1

NCI-H2347 = tested on: NCI-H2347
Method in brief: as §1

COR-L23 = tested on: COR-L23
Method in brief: as §1

PC-14 = tested on: PC-14
Method in brief: as §1

A-427 = tested on: A-427
Method in brief: as §1

SW 900 = tested on: SW 900
Method in brief: as §1

SW 1573 = tested on: SW 1573
Method in brief: as §1

LCLC-103H = tested on: LCLC-103H
Method in brief: as §1

NCI-H596 = tested on: NCI-H596
Method in brief: as §1

LCLC-97TM1 = tested on: LCLC-97TM1
Method in brief: as §1

201T = tested on: 201T
Method in brief: as §1

H3255 = tested on: H3255
Method in brief: as §1

LC-2-ad = tested on: LC-2-ad
Method in brief: as §1

NCI-H1650 = tested on: NCI-H1650
Method in brief: as §1

NCI-H23 = tested on: NCI-H23
Method in brief: as §1

NCI-H727 = tested on: NCI-H727
Method in brief: as §1

HCC-44 = tested on: HCC-44
Method in brief: as §1

NCI-H2228 = tested on: NCI-H2228
Method in brief: as §1

## Cc1sc2c(c1C)C(c1ccc(Cl)cc1)=N[C@@H](CC(=O)OC(C)(C)C)c1nnc(C)n1-2 [JQ1] + O=C(CCCCCCC(=O)Nc1ccccc1)NO [Vorinostat] (partner 1 µM)
NCI-H460; first compound 0.04 µM
  relative viability: 0.672
NCI-H460; first compound 0.1265 µM
  relative viability: 0.621
NCI-H460; first compound 0.4 µM
  relative viability: 0.18
NCI-H460; first compound 1.265 µM
  relative viability: 0.0632
NCI-H460; first compound 4 µM
  relative viability: 0.0462
LK-2; first compound 0.04 µM
  relative viability: 0.301
LK-2; first compound 0.1265 µM
  relative viability: 0.233
LK-2; first compound 0.4 µM
  relative viability: 0.281
LK-2; first compound 1.265 µM
  relative viability: 0.128
LK-2; first compound 4 µM
  relative viability: 0.101
LU99A; first compound 0.04 µM
  relative viability: 0.61
LU99A; first compound 0.4 µM
  relative viability: 0.363
LU99A; first compound 1.265 µM
  relative viability: 0.278
LU99A; first compound 4 µM
  relative viability: 0.188
NCI-H1793; first compound 0.04 µM
  relative viability: 0.722
NCI-H1793; first compound 0.1265 µM
  relative viability: 0.853
NCI-H1793; first compound 0.4 µM
  relative viability: 0.664
NCI-H1793; first compound 1.265 µM
  relative viability: 0.548
NCI-H1793; first compound 4 µM
  relative viability: 0.508
NCI-H2347; first compound 0.04 µM
  relative viability: 0.615
NCI-H2347; first compound 0.1265 µM
  relative viability: 0.521
NCI-H2347; first compound 0.4 µM
  relative viability: 0.463
NCI-H2347; first compound 1.265 µM
  relative viability: 0.282
NCI-H2347; first compound 4 µM
  relative viability: 0.259
COR-L23; first compound 0.04 µM
  relative viability: 0.516
COR-L23; first compound 0.1265 µM
  relative viability: 0.327
COR-L23; first compound 0.4 µM
  relative viability: 0.401
COR-L23; first compound 1.265 µM
  relative viability: 0.269
COR-L23; first compound 4 µM
  relative viability: 0.207
PC-14; first compound 0.04 µM
  relative viability: 0.787
PC-14; first compound 0.1265 µM
  relative viability: 0.564
PC-14; first compound 0.4 µM
  relative viability: 0.44
PC-14; first compound 1.265 µM
  relative viability: 0.203
PC-14; first compound 4 µM
  relative viability: 0.16
A-427; first compound 0.04 µM
  relative viability: 0.861
A-427; first compound 0.1265 µM
  relative viability: 0.748
A-427; first compound 0.4 µM
  relative viability: 0.789
A-427; first compound 1.265 µM
  relative viability: 0.594
A-427; first compound 4 µM
  relative viability: 0.429
SW 900; first compound 0.04 µM
  relative viability: 0.448
SW 900; first compound 0.1265 µM
  relative viability: 0.611
SW 900; first compound 0.4 µM
  relative viability: 0.332
SW 900; first compound 1.265 µM
  relative viability: 0.174
SW 900; first compound 4 µM
  relative viability: 0.157
SW 1573; first compound 0.04 µM
  relative viability: 0.695
SW 1573; first compound 0.1265 µM
  relative viability: 0.365
SW 1573; first compound 0.4 µM
  relative viability: 0.338
SW 1573; first compound 1.265 µM
  relative viability: 0.231
SW 1573; first compound 4 µM
  relative viability: 0.238
LCLC-103H; first compound 0.04 µM
  relative viability: 0.832
LCLC-103H; first compound 0.1265 µM
  relative viability: 0.536
LCLC-103H; first compound 0.4 µM
  relative viability: 0.581
LCLC-103H; first compound 1.265 µM
  relative viability: 0.455
LCLC-103H; first compound 4 µM
  relative viability: 0.375
NCI-H596; first compound 0.04 µM
  relative viability: 0.683
NCI-H596; first compound 0.1265 µM
  relative viability: 0.643
NCI-H596; first compound 0.4 µM
  relative viability: 0.436
NCI-H596; first compound 1.265 µM
  relative viability: 0.292
NCI-H596; first compound 4 µM
  relative viability: 0.311
LCLC-97TM1; first compound 0.04 µM
  relative viability: 0.603
LCLC-97TM1; first compound 0.1265 µM
  relative viability: 0.532
LCLC-97TM1; first compound 0.4 µM
  relative viability: 0.25
LCLC-97TM1; first compound 1.265 µM
  relative viability: 0.121
LCLC-97TM1; first compound 4 µM
  relative viability: 0.0762
201T; first compound 0.04 µM
  relative viability: 0.952
201T; first compound 0.4 µM
  relative viability: 0.73
201T; first compound 1.265 µM
  relative viability: 0.46
201T; first compound 4 µM
  relative viability: 0.367
H3255; first compound 0.04 µM
  relative viability: 0.896
H3255; first compound 0.4 µM
  relative viability: 1.01
H3255; first compound 1.265 µM
  relative viability: 0.526
H3255; first compound 4 µM
  relative viability: 0.428
LC-2-ad; first compound 0.04 µM
  relative viability: 0.699
LC-2-ad; first compound 0.1265 µM
  relative viability: 0.396
LC-2-ad; first compound 0.4 µM
  relative viability: 0.624
LC-2-ad; first compound 1.265 µM
  relative viability: 0.273
LC-2-ad; first compound 4 µM
  relative viability: 0.3
NCI-H1650; first compound 0.04 µM
  relative viability: 0.6
NCI-H1650; first compound 0.1265 µM
  relative viability: 0.438
NCI-H1650; first compound 0.4 µM
  relative viability: 0.475
NCI-H1650; first compound 1.265 µM
  relative viability: 0.292
NCI-H1650; first compound 4 µM
  relative viability: 0.177
NCI-H23; first compound 0.04 µM
  relative viability: 0.547
NCI-H23; first compound 0.1265 µM
  relative viability: 0.586
NCI-H23; first compound 0.4 µM
  relative viability: 0.44
NCI-H23; first compound 1.265 µM
  relative viability: 0.168
NCI-H23; first compound 4 µM
  relative viability: 0.141
NCI-H727; first compound 0.04 µM
  relative viability: 1.47
NCI-H727; first compound 0.1265 µM
  relative viability: 1.14
NCI-H727; first compound 0.4 µM
  relative viability: 0.954
NCI-H727; first compound 1.265 µM
  relative viability: 1.08
NCI-H727; first compound 4 µM
  relative viability: 0.621
HCC-44; first compound 0.04 µM
  relative viability: 1.12
HCC-44; first compound 0.1265 µM
  relative viability: 1.03
HCC-44; first compound 0.4 µM
  relative viability: 0.965
HCC-44; first compound 1.265 µM
  relative viability: 0.788
HCC-44; first compound 4 µM
  relative viability: 0.578
NCI-H2228; first compound 0.04 µM
  relative viability: 0.605
NCI-H2228; first compound 0.1265 µM
  relative viability: 0.826
NCI-H2228; first compound 0.4 µM
  relative viability: 0.377
NCI-H2228; first compound 1.265 µM
  relative viability: 0.316
NCI-H2228; first compound 4 µM
  relative viability: 0.168
